Measurements as given in the NIST ThermoML archive (doi:10.1021/je800026p).
± gives the expanded uncertainty stated by the source.

Conditions: 101.33 kPa, Liquid; for speed of sound: Sing-around technique in a fixed-path interferometer; for mass density: Vibrating tube method

Question: For CCCCN [1-butanamine], which speed of sound (288.15 K) is on record?
Answer: Its speed of sound is 1296.1 ± 2.2 m/s.

Question: What about the mass density (288.15 K) of the same compound?
Answer: The mass density was 742.865 ± 0.58 kg/m3.

Question: And the speed of sound (293.15 K)?
Answer: Its speed of sound is 1273.6 ± 2.2 m/s.

Question: What about the mass density (293.15 K) of the same compound?
Answer: Its mass density is 738.096 ± 0.58 kg/m3.

Question: What about the speed of sound (298.15 K) of the same compound?
Answer: Its speed of sound is 1250 ± 2.2 m/s.

Question: And the mass density (298.15 K)?
Answer: Its mass density is 733.301 ± 0.57 kg/m3.

Question: And the speed of sound (303.15 K)?
Answer: Its speed of sound is 1228.9 ± 2.2 m/s.

Question: And the mass density (303.15 K)?
Answer: The mass density was 728.477 ± 0.57 kg/m3.

Question: What about the speed of sound (308.15 K) of the same compound?
Answer: The speed of sound was 1205.7 ± 2.2 m/s.

Question: And the mass density (308.15 K)?
Answer: The mass density was 723.625 ± 0.56 kg/m3.

Question: Which results are given for CCCCCCOCCOCCO [2-(2-hexyloxyethoxy)ethanol]?
Answer: speed of sound (288.15 K): 1405.2 ± 2.2 m/s; mass density (288.15 K): 936.901 ± 0.77 kg/m3; speed of sound (293.15 K): 1388.1 ± 2.2 m/s; mass density (293.15 K): 932.917 ± 0.76 kg/m3; speed of sound (298.15 K): 1371.1 ± 2.2 m/s; mass density (298.15 K): 928.926 ± 0.76 kg/m3; speed of sound (303.15 K): 1354.3 ± 2.2 m/s; mass density (303.15 K): 924.931 ± 0.75 kg/m3; speed of sound (308.15 K): 1337.7 ± 2.2 m/s; mass density (308.15 K): 920.933 ± 0.75 kg/m3

Question: Which speed of sound (288.15 K) does the source give for CCCCNCCCC [dibutylamine] here?
Answer: Its speed of sound is 1289.2 ± 2.2 m/s.

Question: And the mass density (288.15 K)?
Answer: The mass density was 766.115 ± 2.1 kg/m3.

Question: And the speed of sound (293.15 K)?
Answer: Its speed of sound is 1269.5 ± 2.2 m/s.

Question: What about the mass density (293.15 K) of the same compound?
Answer: Its mass density is 762.022 ± 2.1 kg/m3.

Question: And the speed of sound (298.15 K)?
Answer: Its speed of sound is 1246.7 ± 2.2 m/s.

Question: And the mass density (298.15 K)?
Answer: The mass density was 757.784 ± 2.1 kg/m3.

Question: What about the speed of sound (303.15 K) of the same compound?
Answer: Its speed of sound is 1226.7 ± 2.2 m/s.

Question: And the mass density (303.15 K)?
Answer: The mass density was 752.284 ± 2 kg/m3.

Question: And the speed of sound (308.15 K)?
Answer: The speed of sound was 1207 ± 2.2 m/s.

Question: What about the mass density (308.15 K) of the same compound?
Answer: The mass density was 748.17 ± 2 kg/m3.

Question: With CCCCN(CCCC)CCCC [tributylamine] as the compound, how does the speed of sound (288.15 K) read?
Answer: Its speed of sound is 1285 ± 2.2 m/s.

Question: What about the mass density (288.15 K) of the same compound?
Answer: Its mass density is 781.336 ± 0.61 kg/m3.

Question: And the speed of sound (293.15 K)?
Answer: The speed of sound was 1266.4 ± 2.2 m/s.

Question: And the mass density (293.15 K)?
Answer: The mass density was 777.632 ± 0.61 kg/m3.

Question: And the speed of sound (298.15 K)?
Answer: Its speed of sound is 1247.6 ± 2.2 m/s.

Question: What about the mass density (298.15 K) of the same compound?
Answer: Its mass density is 773.913 ± 0.6 kg/m3.

Question: And the speed of sound (303.15 K)?
Answer: Its speed of sound is 1229 ± 2.2 m/s.

Question: What about the mass density (303.15 K) of the same compound?
Answer: The mass density was 770.183 ± 0.6 kg/m3.

Question: What about the speed of sound (308.15 K) of the same compound?
Answer: The speed of sound was 1210.4 ± 2.2 m/s.

Question: What about the mass density (308.15 K) of the same compound?
Answer: The mass density was 766.44 ± 0.6 kg/m3.
